Test system: trained expert panelists
Assay: Sensory formulation study ballot: taste attributes rated on 0-15 scales by trained expert panelists
Type: in vivo, human
Settings: 0-15 scale, rating defined for panel calibration
Source text: Tongue numbing can also manifest itself as “tongue tingling”. These non-sugar-like characteristics appear inter-related in the sense that formulation as well as temperature changes affect the perception of several of them. Another taste characteristic of steviol glycosides, particularly those with relatively low levels of REB A, is soapiness, a characteristic that results from the surfactant portion of the molecule. To quantify all of these sensory effects by existing methods would require an expert sensory panel and at least 4 different sensory tests (i.e., C/R Function Determination, Flavor Profile Analysis, Temporal Profile Analysis and Adaptation Profile Analysis). However, to address a need for rapid screening of HP sweetener formulations, Prakash et al., described a scaling technique to quantify all of these sensory percepts in a single test (reference shown below under the table). An improvement of this methodology is described below.
Prior to the evaluation of test samples, all panelists must first calibrate themselves on Sucrose and Reference Samples (e.g., REB A) to ensure that they are able to appropriately scale taste attributes of interest. These Reference Samples are to be available in ample quantities for all experimental sessions. The Sucrose Reference is 10.0% sucrose acidified with 0.1% citric acid. For illustration purposes, an example of a Reference Sample can be a REB A Reference Sample that has 500 PPM REB A in the same system for general formula optimization studies.
Take a ca. 15 mL sample of the Sucrose Reference into the mouth swishing it around vigorously and note all attributes of the sensory experience. After ca. 10 sec, expectorate the sample and immediately rinse vigorously with ca. 15 mL of water, expectorating the rinse water. Over the next 2 minutes, while minimizing tongue movement in the mouth, pay attention to any rebound or intensification in perceived sweetness, bitterness, or numbing/tingling sensation. The intensity of the attribute perceived at 2 minutes is an estimate of its lingering tendency. Upon completion of calibration with the Sucrose Reference, calibration with the REB A Reference is carried out in the same way. The attribute ratings for the Sucrose and REB A References, all on 0-15 scales, are defined as follows: […]
After completion of reference sample calibrations, as well as in follow up of all sample tests, rinse the mouth vigorously with ca. 15 mL portions of the Sucrose Reference solution and two ca. 15 mL portions of water in effort to get the sensory system back to baseline.
After calibration with the Sucrose Reference and REB A Reference, evaluate all experimental samples by the same protocol, always using the Sucrose Reference and water rinse procedure and ensuring adequate time for the sensory system to return to normal before proceeding with subsequent samples
Taste procedure: the beverages were evaluated in triplicate using the sensory methodology described herein by four trained expert panelists and mean values were used for data analysis.

[1] = 2 minutes after expectoration and rinse, 10.0% sucrose or 500 PPM REB A in 0.1% citric acid
[2] = Sucrose Reference 10.0% sucrose, REB A Reference 500 PPM, both in 0.1% citric acid

`C=C1C[C@@]23CC[C@H]4[C@@](C)(CCC[C@@]4(C)C(=O)O[C@@H]4O[C@H](CO)[C@@H](O)[C@H](O)[C@H]4O)[C@@H]2CC[C@]1(O[C@@H]1O[C@H](CO)[C@@H](O)[C@H](O[C@@H]2O[C@H](CO)[C@@H](O)[C@H](O)[C@H]2O)[C@H]1O[C@@H]1O[C@H](CO)[C@@H](O)[C@H](O)[C@H]1O)C3` [REB A100 Reference, rebaudioside A] was tested, and the “Bitterness Intensity @ 2 Min (Bitter2)” value [1] was 2, the “Numbing/Tingling Sensation @ 2 Min (Numb/Ting2)” value [1] was 2 and the “Sweetness Intensity @ 2 Min (Sweet2)” value [1] was 3. The “Astringency Intensity (Astring)” value [2] was 0, the “Bitterness Intensity (IB)” value [2] was 3 and the “Mouthfeel (Mfeel)” value [2] was 0. For the same molecule, the “Numbing/Tingling Sensation (Numb/Ting)” value [2] was 0, the “Soapiness (Soap)” value [2] was 1 and the “Sweetness Intensity Initial (Sweetness)” value [2] was 10. The “Sweetness Onset/Appearance Time (Onset)” value [2] was 3.

— patent US20160235102A1, “SWEETENER COMPOSITION, SWEETENER PRODUCTS, AND METHODS OF SWEETENING” (ALMENDRA AMERICAS, LLC, priority 2013, published 2016)
